From ChEMBL document CHEMBL3507680, “University of Dundee, Gates Library screen for HepG2 cell viability” come the findings set out here.

Each structure is given as a SMILES string.

This data set is described as follows: Human HepG2 cell viability assay in 384 well format. Format: toxicity, cell-based. The settings on record: HepG2 cells, read-out: Inhibition. Set-up: dose 125 nL, time 70.5 hour; concentration not given beside the values.

In the case of `O=C(CN1CCOc2ccc(Cl)cc21)NCCCn1ccnc1`, the cytotoxicity at 70.5 h is -5.4%.

Regarding `O=C(CN1CCOc2ccc(Cl)cc21)NCc1ncc[nH]1`, the cytotoxicity at 70.5 h was -2.35%. For the compound `CCCNC(=O)C(C)Nc1ccn(Cc2ccccn2)n1` (stereo not drawn), the cytotoxicity at 70.5 h was found to be 1.09%. As for `O=C(c1ccc2nncn2c1)N1CCSC2(CCCCC2)C1`, the cytotoxicity at 70.5 h was 11.5%. On to `CCCN1CCC(Nc2nc(CC)ns2)CC1`, for which the cytotoxicity at 70.5 h is -2.52%. As for `CC1(C)CN(C(=O)c2ccc3nncn3c2)CCS1`, the cytotoxicity at 70.5 h is -5.72%. With `CCN(C)S(=O)(=O)NCC(O)c1cc2ccccc2s1` (stereo not drawn), the cytotoxicity at 70.5 h is -0.185%.

For `COC(=O)c1ccc(Cl)c(CN(C)Cc2ncnn2C)c1`, the cytotoxicity at 70.5 h turned out to be 1.01%. Next, `Cc1c(F)cccc1S(=O)(=O)NCC(C)(C)CC(C)O` (stereo not drawn): -5.55%; `CN(Cc1cc(Cl)ccc1Cl)Cc1ncnn1C`: -1.99%; `CC(C)Cc1nc(CN(C)CCOc2ccc(F)cc2)no1`: -8.43%.

Take `Cc1ccccc1OCCN(C)Cc1noc(CC(C)C)n1`: the cytotoxicity at 70.5 h is 4.63%. For `COC(=O)c1cccc(CN(C)Cc2ncnn2C)c1C#N`, the cytotoxicity at 70.5 h was 28.8%. With `COC(=O)N1CCCC(C(=O)N2CCCCC2)C1` (stereo not drawn) the figure was -4.53%. Take `CC(C)Cc1nc(CN(C)CCOc2ccccc2F)no1`: the cytotoxicity at 70.5 h amounted to 12.5%. In the case of `Cc1cc(NC(=O)C(C)Nc2ccn(Cc3ccccn3)n2)on1` (stereo not drawn), the cytotoxicity at 70.5 h was -10.1%.

Regarding `CN(Cc1ccco1)C(=O)CN1CCc2ccccc2C1`, the cytotoxicity at 70.5 h was -7.16%.

Consider `CNC(=O)C1CCCN(C(=O)C2CCC2)C1` (stereo not drawn), for which the cytotoxicity at 70.5 h is -11.6%. Turning to `CCSc1cncc(N2CCC(NC(=O)C3CCCCC3)CC2)n1`, the cytotoxicity at 70.5 h was -13.5%.

Regarding `CCN1CCCCC1C(=O)Nc1cccc(-c2nnc[nH]2)c1` (stereo not drawn), the cytotoxicity at 70.5 h is -0.846%. Take `CCCN1CCCCC1C(=O)Nc1ccc(-c2nnc[nH]2)cc1` (stereo not drawn): the cytotoxicity at 70.5 h is -4.51%. With `O=C(NC1CCN(c2ncccn2)CC1)c1cccc(-n2ccnc2)c1` the figure was -7.96%; with `O=S(=O)(CC1CCCO1)Nc1cc(Cl)ccc1-n1cccn1` (stereo not drawn), 2.79%.

`O=S(=O)(CC1CCCCO1)Nc1cc(F)ccc1-n1cccn1` (stereo not drawn): the cytotoxicity at 70.5 h was determined as 9.49%. As for `CCCS(=O)(=O)CC(=O)Nc1cc(CC(C)(C)C)n[nH]1`, the cytotoxicity at 70.5 h was -0.508%.

For the compound `Cn1ccnc(Sc2ccc(O)cc2)c1=O`, the cytotoxicity at 70.5 h was -14.3%. In the case of `Cn1ccnc(Sc2cccc(C#N)c2)c1=O`, the cytotoxicity at 70.5 h is -4.29%. `Cc1noc(C)c1C[S+]([O-])Cc1cn2cccc(C)c2n1` (stereo not drawn): the cytotoxicity at 70.5 h was -4.48%. `Cc1ccc(C)c(Sc2nccn(C)c2=O)c1`: the cytotoxicity at 70.5 h was -10.6%. As for `CCCc1nc(C[S+]([O-])Cc2cn3cccc(C)c3n2)no1` (stereo not drawn), the cytotoxicity at 70.5 h was -3.84%. With `CC(=O)c1ccc(CNC(=O)c2cc(C#N)cn2C)nc1C`, the cytotoxicity at 70.5 h was -4.66%. In the case of `O=S(=O)(CC1CCCCO1)Nc1c(F)cccc1-n1cccn1` (stereo not drawn), the cytotoxicity at 70.5 h was -3.07%. Take `O=C(NC1CCN(c2ncccc2F)C1)c1cccc(-n2ccnc2)c1` (stereo not drawn): the cytotoxicity at 70.5 h is -9.37%. With `Cc1csc(CCCNC(C)CC(=O)Nc2ccc(F)cc2)n1` (stereo not drawn), the cytotoxicity at 70.5 h worked out at 5.43%. Consider `C=C(C)CNC(C)c1ccc(S(C)(=O)=O)c(F)c1` (stereo not drawn), for which the cytotoxicity at 70.5 h is -9.09%.

As to `Cc1ccn(-c2ccc(NCc3ccnc(N4CCCCC4)c3)nn2)n1`, the cytotoxicity at 70.5 h is -10.5%. Next, `O=C(COc1ccccc1C(F)(F)F)NCCNC(=O)c1ccccc1`: 12.9%; `CC(C)c1noc(CS(=O)(=O)CC(=O)NCc2cccs2)n1`: -9.72%; `COc1ccc(CC(=O)NC(CC(=O)O)c2ccc(F)cc2)cc1OC` (stereo not drawn): -5.71%. `COc1ccccc1CC(=O)NC(CC(=O)O)c1ccc(F)cc1` (stereo not drawn): the cytotoxicity at 70.5 h is -8.41%. Consider `CC(Sc1nnc(C2CC2)n1CC(N)=O)c1ccc(F)c(Cl)c1` (stereo not drawn), for which the cytotoxicity at 70.5 h is -6.61%. Consider `CC(Sc1nnc(C2CC2)n1CC(N)=O)c1ccc(Cl)cc1` (stereo not drawn), for which the cytotoxicity at 70.5 h was -8.5%. In the case of `NC(=O)C(NC(=O)c1cc(Br)c[nH]1)c1ccccc1` (stereo not drawn), the cytotoxicity at 70.5 h was 10.8%. Next, `CC(C)CC(C#N)NC(=O)c1ccc(Oc2cccnc2)cc1` (stereo not drawn): -5.49%; `Cc1ccn(-c2ccc(NCc3ccccc3F)nn2)n1`: 13.7%; `CC(C)Sc1ccc(C(C)NC(=O)Cn2cccnc2=O)cc1` (stereo not drawn): -15.1%. As to `O=c1[nH]c(N2CCN(C3CC3)CC2)nc2c1cnn2-c1ccccc1`, the cytotoxicity at 70.5 h is -6.97%. For `Cc1ccc(CNC(=O)c2oc3ccccc3c2CN(C)C)n1C`, the cytotoxicity at 70.5 h was -6.83%. Turning to `N#Cc1ccc(F)c(CNC(=O)NCCC(=O)NC2CCCC2)c1`, the cytotoxicity at 70.5 h is -3.12%. For `CC(C)(C)C(C#N)NC(=O)c1ccc(Oc2cccnc2)cc1` (stereo not drawn), the cytotoxicity at 70.5 h was -8.31%. `Cc1nc(C2CCCN(C(=O)CCCOc3cccc(F)c3)C2)no1` (stereo not drawn): the cytotoxicity at 70.5 h is -16.6%. With `O=C(NC1CCN(CC2CC2)C1)c1ccc(N2CCC(O)CC2)cc1` (stereo not drawn) the figure was -7.24%; with `CNc1nc(CNC(=O)Nc2ccc(OC(C)C)cc2F)cs1`, -5.89%; with `CN1CCCC(NC(=O)c2ccc(C(=O)c3cc[nH]c3)cc2)C1` (stereo not drawn), -16.9%. With `Cn1cc(C(=O)N2CCOc3ccccc32)ccc1=O`, the cytotoxicity at 70.5 h is -12.6%. Turning to `Cc1ccc2c(c1)OCCN2C(=O)c1ccc(=O)n(C)c1`, the cytotoxicity at 70.5 h was -5.4%. For the compound `O=C(O)c1ccc(CCNC(=O)C2(O)Cc3ccccc3C2)cc1`, the cytotoxicity at 70.5 h is -12.7%. Consider `COC(=O)CCCNC(=O)COc1ccccc1C(F)(F)F`, for which the cytotoxicity at 70.5 h was -6.88%.

For the compound `CC(C)N(CC1CCCN(CC(N)=O)C1)C(=O)OC(C)(C)C` (stereo not drawn), the cytotoxicity at 70.5 h was -12.8%. Turning to `CCC(CC)CNC(=O)N(C)C(C)c1ccccn1` (stereo not drawn), the cytotoxicity at 70.5 h came to 12.3%.

With `CC(C)c1noc(CCCC(=O)NCCOc2ccccc2)n1`, the cytotoxicity at 70.5 h was -8.16%. For `CCN(CC)S(=O)(=O)CCNC(=O)N(C)C(C)c1ccccn1` (stereo not drawn), the cytotoxicity at 70.5 h was -8.05%.

In the case of `Cc1nc(CNC(=O)c2oc3ccccc3c2CN(C)C)oc1C`, the cytotoxicity at 70.5 h is -8.24%. Consider `Cc1nc(C2CCCN2C(=O)COCCOc2ccccc2)no1` (stereo not drawn), for which the cytotoxicity at 70.5 h came out at 8.74%.

As to `N#CCSCCCN1CCCC(C(=O)N2CCCCCC2)C1` (stereo not drawn), the cytotoxicity at 70.5 h was -4.07%. With `Cc1nc(C2CCCN2C(=O)CCCOc2cccc(F)c2)no1` (stereo not drawn), the cytotoxicity at 70.5 h was -4.99%. Next, `Cn1cc(CN2CCN(Cc3nccn3C)CC2)cn1`: 29.1%. Next, `CC(C)c1csc(C2CCCN(C(=O)c3ccc(=O)n(C)n3)C2)n1` (stereo not drawn): 1.7%; `CCn1c(C)nnc1CN(C)C1CCN(Cc2cnc(C)cn2)C1` (stereo not drawn): -0.885%.

Take `Cc1ccc(CNCc2nnc3n2CC(C(F)(F)F)CC3)cc1` (stereo not drawn): the cytotoxicity at 70.5 h came out at 1.57%. With `COc1ccccc1CNC(=O)C1=NN(c2ccc(C)cc2)C(=O)CN1` the figure was -4.66%. Next, `Cc1noc(C2CCN(C(=O)c3c(C)noc3C)CC2)n1`: -10.7%.

Turning to `CC(O)CN1CCN(C(=O)c2cn(-c3ccccc3Cl)nn2)CC1` (stereo not drawn), the cytotoxicity at 70.5 h was -9.71%. Regarding `CC(NC1(CNC(=O)CC(C)(C)C)CCOCC1)c1ccccc1` (stereo not drawn), the cytotoxicity at 70.5 h was -7.83%. Next, `CC(NC1(CNC(=O)Cn2cccn2)CCOCC1)c1ccccc1` (stereo not drawn): -6.45%; `CCc1nc(CN2CCN(C(=O)COCc3ccccc3)CC2)no1`: -7.36%; `Cc1cc(C)n(-c2cncc(NCCNC(=O)C(C)C)n2)n1`: -3.05%. Next, `Cc1ccc(NC(=O)NC(C)c2nc[nH]n2)s1` (stereo not drawn): -8.03%. For the compound `Cc1ccc(C2CSCCN2C(=O)C2=CCCC2)o1` (stereo not drawn), the cytotoxicity at 70.5 h is -6.86%.

On to `COc1ccc(NC(=O)NC(C)c2nc[nH]n2)cc1` (stereo not drawn), for which the cytotoxicity at 70.5 h was -0.0192%. For `O=c1ccc(-c2ccccc2F)nn1CCN1CCCS1(=O)=O`, the cytotoxicity at 70.5 h was -2.96%. With `Cc1cc(CN(C)Cc2cc3c(cc2OC(F)F)OCO3)on1` the figure was -6.95%; with `CN(Cc1cc2c(cc1OC(F)F)OCO2)Cc1nccn1C`, -3.97%; with `CCC(C)(NCC(=O)Nc1ccccc1)c1nc(C)cs1` (stereo not drawn), -4.87%. With `Cc1nn(C)c(N(C)C)c1CNCc1cccnc1`, the cytotoxicity at 70.5 h was 16.2%. Take `Cn1cc(CNCCn2cccn2)c(-c2cccnc2)n1`: the cytotoxicity at 70.5 h was -4.81%. Take `CN(CC1CC1)C(=O)CN(Cc1cccc(O)c1)C1CCC(O)CC1` (stereo not drawn): the cytotoxicity at 70.5 h was -6.77%.

For `Cn1ncc2c(NCC3CCCN3c3cccnn3)ncnc21` (stereo not drawn), the cytotoxicity at 70.5 h is -3.62%. Regarding `O=C(CCc1ccccc1F)NS(=O)(=O)c1ccc2c(c1)OCCO2`, the cytotoxicity at 70.5 h is 21.2%. Take `COCc1nc(C(=O)N2CCCC2c2ccncc2)cs1` (stereo not drawn): the cytotoxicity at 70.5 h is -1.03%.

Regarding `COc1ccccc1OCCNCCn1cccn1`, the cytotoxicity at 70.5 h was -10.7%.

`Cc1cnn(CC(C)NCc2csc(-c3cccs3)n2)c1` (stereo not drawn): the cytotoxicity at 70.5 h was -22.3%. Next, `Clc1ccc(OCCNCCn2cccn2)cc1`: 22.1%; `COCc1nc(C(=O)N2CCCC2c2cccc(C)c2)cs1` (stereo not drawn): -8.14%. With `Cc1ccc(-c2nc(CN3CCN(C(=O)C4CC4)CC3)cs2)o1` the figure was -5.72%; with `Cc1ccc(-c2nc(CN3CCN(CC(=O)N(C)C)CC3)cs2)o1`, -5.37%; with `CC(NC(=O)NCCCN(C)S(C)(=O)=O)c1ccc(F)cc1` (stereo not drawn), 16.8%. With `CCOC(=O)C1CCN(Cc2csc(-c3ccc(C)o3)n2)CC1`, the cytotoxicity at 70.5 h is -3.12%.

Take `COc1c(CNCc2ccnc(N3CCCCC3)c2)c(C)nn1C`: the cytotoxicity at 70.5 h amounted to 24.3%.

Turning to `Cc1ccc(C(=O)N2CCC(c3n[nH]c(C4CC4)n3)CC2)cc1F`, the cytotoxicity at 70.5 h is -7.97%. `CN(C)CC(=O)N1CCN(C(=O)c2cccc3[nH]ncc23)CC1`: the cytotoxicity at 70.5 h is -8.09%. Take `CCc1cccc(N2CCC(NC(=O)c3ccncc3)CC2)c1`: the cytotoxicity at 70.5 h was -4.49%. With `Cc1cccc(C(=O)N2CCN(C(=O)Cc3ccccn3)CC2)c1C` the figure was -2.92%.
